Patent US7776558B2, “Human G protein-coupled receptor and modulators thereof for the treatment of cell death-related disorders” (Arena Pharmaceuticals, Inc., priority 2003, dated 2010)
“Also recorded” adds a separate entry of the source. Where no end group is shown, it is not given here.

Columns and labels:
[1] = tested on: primary mouse cortical neurons; test: 22C11 (anti-APP antibody)-induced cell death of primary mouse cortical neurons; type: cell-based; conditions: added 1 h prior to mAb 22C11; overnight (~18 h); LDH assay; FIG. 11B
Description: 22C11 is a monoclonal antibody (mAb) which binds to the extracellular domain of the human, rat or mouse β-amyloid precursor protein (APP) (Boehringer Mannheim; Indianapolis, Ind.).
The assay was set up essentially as described by Rohn et al. [Neurochem (2000) 74:2331-2342]. Briefly, the primary cultures of mouse cortical neurons were established from E17 embryos. The gestational pups were humanely decapitated, and the brain was harvested into Hanks Buffered Salt Solution (HBSS) buffer. The cortices were taken and processed with trypsin (0.05% in HBSS), after which the cells were mechanically dissociated using a 21 g needle. The cell suspension was then passed through a […] filter, and the recovered cells plated on poly-D-lysine-treated 12-well plates. After five days of culture, the cells were used for assay.
For the assay, four experimental groups were set up. […] In the “22C11” group, cells were cultured in the presence of mAb 22C11 alone. […] The assay was allowed to proceed overnight (˜18 h), after which cell viability was determined by LDH assay as described in Example 25.

[2] = mice; Mamiya & Ukai 2001; cited from earlier work
neuronal cells = conditions: cited from earlier work
human FPRL2 = target: T1, human FPRL2 (Homo sapiens, UniProt P25089); test: Melanophore assay (pigment aggregation, Gi coupling); type: cell-based; design: expressed in transfected cells; conditions: FPRL2 double tagged (HA/V5), transient; FIG. 4; read-out: EC50 of promoted pigment aggregation in melanophore (Gi coupling)
T1 sequence (P25089 with tags, fused parts or gaps): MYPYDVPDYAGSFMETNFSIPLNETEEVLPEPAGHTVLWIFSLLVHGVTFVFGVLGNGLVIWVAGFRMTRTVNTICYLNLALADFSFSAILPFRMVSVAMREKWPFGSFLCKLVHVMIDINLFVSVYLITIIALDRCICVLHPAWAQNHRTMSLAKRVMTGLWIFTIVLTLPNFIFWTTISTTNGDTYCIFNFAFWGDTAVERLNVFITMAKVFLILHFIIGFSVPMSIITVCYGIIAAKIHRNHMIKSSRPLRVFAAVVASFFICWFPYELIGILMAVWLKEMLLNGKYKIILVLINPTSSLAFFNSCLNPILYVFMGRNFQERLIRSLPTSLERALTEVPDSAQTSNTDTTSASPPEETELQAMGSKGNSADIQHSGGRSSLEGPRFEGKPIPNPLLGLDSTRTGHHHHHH
Description: Melanophores are skin cells found in lower vertebrates. They contain pigmented organelles termed melanosomes. Melanophores are able to redistribute these melanosomes along a microtubule network upon G-protein coupled receptor (GPCR) activation. The result of this pigment movement is an apparent lightening or darkening of the cells. In melanophores, the decreased levels of intracellular cAMP that result from activation of a Gi-coupled receptor cause melanosomes to migrate to the center of the cell, resulting in a dramatic lightening in color. If cAMP levels are then raised, following activation of a Gs-coupled receptor, the melanosomes are re-dispersed and the cells appear dark again. The increased levels of diacylglycerol that result from activation of Gq-coupled receptors can also induce this re-dispersion. In addition, the technology is also suited to the study of certain receptor tyrosine kinases. […] The response can be easily detected using a conventional absorbance microplate reader or a modest video imaging system. […]
Melanophores can be utilized to identify compounds, including natural ligands, against GPCRs. […] The test cells are then contacted with chemical compounds, and it is determined whether the pigment disposition in the cells changed from the initial state of pigment disposition. […]

Molecule | Protection from cell death induced by anti-APP mAb 22C11 [1] | Learning and memory impairment [2] | Protection of neuronal cells from toxic insults (neuronal cells; Alzheimer's disease-relevant toxicity, three mutant FAD genes and Aβ) | Rescue of cortical neurons from prion-peptide-induced apoptosis (neuronal cells; Sponne et al. 2004) | Protective activity for neurons against serum deprivation (neuronal cells; Takahashi et al. 2002) | EC50 (human FPRL2) | Activity relative to Humanin (neuronal cells; Niikura et al. 2002)
CC(C)c1ccc2c(c1)CCC1C(C)(C(N)=O)CCCC21C (centres unmarked) [Compound 1, 7-Isopropyl-1,4a-dimethyl-1,2,3,4,4a,9,10,10a-octahydro-phenanthrene-1-carboxylic acid amide] | protect primary mouse cortical neurons from cell death |  |  |  |  |  | 
CC[C@H](C)[C@H](NC(=O)[C@H](CCC(=O)O)NC(=O)[C@H](CO)NC(=O)[C@@H](NC(=O)[C@H](CC(C)C)NC(=O)[C@H](CC(C)C)NC(=O)[C@H](CC(C)C)NC(=O)[C@H](CC(C)C)NC(=O)[C@H](CS)NC(=O)[C@H](CO)NC(=O)[C@H](Cc1ccccc1)NC(=O)CNC(=O)[C@H](CCCNC(=N)N)NC(=O)[C@@H]1CCCN1C(=O)[C@H](C)NC(=O)[C@@H](N)CCSC)[C@@H](C)O)C(=O)N[C@@H](CC(=O)O)C(=O)N[C@@H](CC(C)C)C(=O)N1CCC[C@H]1C(=O)N[C@H](C(=O)N[C@@H](CCCCN)C(=O)N[C@@H](CCCNC(=N)N)C(=O)N[C@@H](CCCNC(=N)N)C(=O)N[C@@H](C)C(=O)O)C(C)C [Humanin] | protect primary mouse cortical neurons from cell death | improve learning and memory impairment in mice | protect neuronal cells from Alzheimer's disease-relevant toxicity; also recorded: protect neuronal cells from a number of toxic insults | rescue cortical neurons from prion-peptide-induced apoptosis | protective activity for neurons against serum deprivation | ~239 nM | 
MAPRGFSCLLLLTGEIDLPVKRRA [[Gly14]-Humanin] |  |  |  |  |  |  | significantly more active than Humanin
